Assay results published in patent US20250275953A1, “VODOBATINIB FOR REDUCING PROGRESSION OF PARKINSON'S DISEASE” (Sun Pharma Advanced Research Company Ltd., priority 2022, published 2025).
“Also recorded” adds a separate entry of the source.

Tests used:
[1] = CSF concentration, Parkinson's disease patients, open label part, Day 14; type: in vivo, human; details: for mean CSF level: 2-3 h post dose, Day 14, PD patients; for Concentration in CSF Mean (SD): Day 14, 2-3 h post dose, PD patients open label; for Concentration in CSF Geo. Mean / Concentration in CSF Median: Day 14, PD patients open label
Method: A single CSF sample was collected at either 2 h or 3 h following the dose on Day 14.
(§1) Study NCT02970019 was a multi-center safety and tolerability study of vodobatinib in 60 subjects with Parkinson's Disease (diagnosed with PD according to the Brain Bank criteria of the United Kingdom Parkinson's Disease Society) who were randomized to receive placebo or various daily doses of vodobatinib for 14 days in a parallel assignment design with quadruple masking (participant, care provider, investigator, and outcomes assessor.) In study NCT02970019, consecutive cohorts of up to eight subjects received once-daily doses of 6, 12, 18, 24, 48, 96, 192, or 384 mg of study drug for 14 days, with six subjects in each cohort on vodobatinib and two subjects in each cohort on placebo. An alternating panel design was used such that subjects in the 6 and 18 mg cohorts were the same, and subjects in the 12 and 24 mg cohorts were the same, thus yielding 48 total individuals enrolled in the eight cohorts. There was a wash-out period of 14 days between each were studied in sequential ascending dose cohorts. In parallel to the double-blind cohorts, up to four subjects per dose cohort were enrolled in an open-label study of vodobatinib to receive 24, 48 or 96 mg once-daily doses of for 14 days. These subjects underwent lumbar puncture to collect CSF on Day 1, and 2-3 h after the last morning dose on Day 14. PK blood draws (for both double-blind and open label) were collected at pre-dose (˜30 min) and at 0.5, 1, 2, 4, 8, 12 and 24 h post-dose on Days 1 and 14.
Vodobatinib levels in plasma and CSF were determined using a fully validated LC-MS/MS assay with lower limits of quantitation (LLOQ) of 2.5 ng/mL and 0.05 ng/mL, respectively. PK analyses were performed using standard non-compartmental analysis with Phoenix® WinNonlin® software Version 6.4 to estimate the PK parameters Cmax, Tmax, AUCtau and Css. Descriptive statistics were used to characterize vodobatinib concentrations and PK parameters in plasma and CSF. Statistical calculations were performed with SAS software (Version 9.4, SAS Institute, Cary, North Carolina, USA).

[2] = target: Abl (Homo sapiens, UniProt P00519); assay: Biochemical kinase assay, native Abl (radiometric substrate phosphorylation)
Method: (§2) Conventional biochemical kinase assays, using radioactivity and fluorescence as readouts, were used to derive half maximal-inhibitory concentrations (IC50) values.
Inhibition of c-Abl kinase activity by vodobatinib was determined in a radiometric detection assay using γ-33P-labeled-ATP. […] (Abl substrate peptide), 10 mM magnesium acetate, and [γ-33P-ATP]. The reaction was initiated by addition of an MgATP mix. Following incubation for 40 minutes at room temperature, the reaction was stopped by addition of 3% phosphoric acid solution. The radiolabeled substrate was separated onto a P30 filtermat, which was washed with 75 mM phosphoric acid and methanol, and dried, following which radioactivity incorporated into the substrate was determined by scintillation counting. Similar assessments were also carried out using recombinant murine c-Abl enzyme using the identical assay format as described above.

[3] = Safety and tolerability, Parkinson's disease patients (NCT02970019); type: in vivo, human; details: for Possibly related AEs by subject: daily for 14 days
Source text: Of these, 44 subjects completed the study. An additional 10 subjects were enrolled in the open label part of the study, of these, one subject was discontinued due to an AE of vomiting.
Safety population was comprised of 48 subjects (not including those in the open label cohorts) and PK population was comprised of 36 subjects from double blind part and 10 subjects from open label part of the study. No subjects were discontinued from the study due to protocol deviation.
as §1

[4] = target: Abl (E255K) (Homo sapiens, UniProt P00519, E255K); assay: Biochemical kinase assay, mutant Abl
Source text: as §2

[5] = target: Abl (M351T) (Homo sapiens, UniProt P00519, M351T); assay: Biochemical kinase assay, mutant Abl
Source text: as §2

[6] = target: Abl (H396P) (Homo sapiens, UniProt P00519, H396P); assay: Biochemical kinase assay, mutant Abl
Source text: as §2

[7] = target: Abl (F317I) (Homo sapiens, UniProt P00519, F317I); assay: Biochemical kinase assay, mutant Abl
Source text: as §2

[8] = target: Abl (Y253F) (Homo sapiens, UniProt P00519, Y253F); assay: Biochemical kinase assay, mutant Abl
Source text: as §2

[9] = target: Abl (Q252H) (Homo sapiens, UniProt P00519, Q252H); assay: Biochemical kinase assay, mutant Abl
Source text: as §2

[10] = target: Abl (F317L) (Homo sapiens, UniProt P00519, F317L); assay: Biochemical kinase assay, mutant Abl
Source text: as §2

Cc1ccc(C(=O)NNC(=O)c2c(C)cccc2Cl)cc1C#Cc1cnc2ccccc2c1 [N′-(2-chloro-6-methylbenzoyl)-4-methyl-3-[2-(3-quinolyl)ethynyl]-benzohydrazide]
mean CSF level ([1]; 24 mg): 1.5 nM
Concentration in CSF Mean (SD) ([1]; 24 mg): 0.6550 (0.2447) ng/mL
Concentration in CSF Mean (SD) ([1]; 24 mg, listed as vodobatinib): 0.66 ng/mL
Concentration in CSF Geo. Mean ([1]; 24 mg): 0.6317 ng/mL
Concentration in CSF Median ([1]; 24 mg): 0.6550 ng/mL
mean CSF level ([1]; 48 mg): 1.5 nM
Concentration in CSF Mean (SD) ([1]; 48 mg): 0.6683 (0.744) ng/mL
Concentration in CSF Mean (SD) ([1]; 48 mg, listed as vodobatinib): 0.67 ng/mL
Concentration in CSF Geo. Mean ([1]; 48 mg): 0.8868 ng/mL
Concentration in CSF Median ([1]; 48 mg): 0.5350 ng/mL
mean CSF level ([1]; 96 mg): 2.4 nM
Concentration in CSF Mean (SD) ([1]; 96 mg): 1.1193 (0.4533) ng/mL
Concentration in CSF Mean (SD) ([1]; 96 mg, listed as vodobatinib): 1.1 ng/mL
Concentration in CSF Geo. Mean ([1]; 96 mg): 1.0482 ng/mL
Concentration in CSF Median ([1]; 96 mg): 1.0850 ng/mL
times more potent than nilotinib ([2]; 0.9 nM vs 20 nM): 20
IC50 ([2]; Table 1): 0.9 nM
n/N (number of AEs per number of subjects in dose group) ([3]; 6 mg DB): 6 mg DB (5/8)
Possibly related AEs by subject ([3]; 6 mg DB, listed as Vodobatinib): Increased appetite, feet & ankle weakness, infraorbital puffiness,; also recorded: increased tremor and dry eyes
n/N (number of AEs per number of subjects in dose group) ([3]; 12 mg DB): 12 mg DB (3/8)
Possibly related AEs by subject ([3]; 12 mg DB, listed as Vodobatinib): Light-headedness; also recorded: Decreased balance & decreased gait
n/N (number of AEs per number of subjects in dose group) ([3]; 18 mg DB): 18 mg DB (3/6)
Possibly related AEs by subject ([3]; 18 mg DB): New onset atrial fibrillation and orthostasis (moderate severity)
n/N (number of AEs per number of subjects in dose group) ([3]; 24 mg DB): 24 mg DB (1/8)
Possibly related AEs by subject ([3]; 24 mg DB): None
n/N (number of AEs per number of subjects in dose group) ([3]; 24 mg OL): 24 mg OL (3/3)
Possibly related AEs by subject ([3]; 24 mg OL, listed as Vodobatinib): Vertigo, headache, nausea, weakness, vomiting (all moderate
n/N (number of AEs per number of subjects in dose group) ([3]; 48 mg DB): 48 mg DB (2/8)
Possibly related AEs by subject ([3]; 48 mg DB): None
n/N (number of AEs per number of subjects in dose group) ([3]; 96 mg DB): 96 mg DB (2/8)
Possibly related AEs by subject ([3]; 96 mg DB, listed as Vodobatinib): Abdominal pain and soft stool; also recorded: Brain fog, worsening of right lower leg cramps
n/N (number of AEs per number of subjects in dose group) ([3]; 96 mg OL): 96 mg OL (2/4)
Possibly related AEs by subject ([3]; 96 mg OL, listed as Vodobatinib): Dry eyes; also recorded: Worsening of muscle cramps (“probably related”)
n/N (number of AEs per number of subjects in dose group) ([3]; 192 mg DB): 192 mg DB (3/8)
Possibly related AEs by subject ([3]; 192 mg DB, listed as Vodobatinib): Mild rash, epigastric pain; also recorded: Somnolence, worsening of left upper extremities resting tremor; also recorded: Erythematous, pruritic rash on torso and head
subjects discontinued due to AEs ([3]; 192 mg, 384 mg (double-blind), 24 mg (open-label)): Three
changes in laboratory values ([3]; PD patients): no clinically significant drug related changes
changes in the QT interval ([3]; PD patients): no drug-related changes
overall safety and tolerability ([3]; PD patients): acceptable safety and tolerability
changes in laboratory values ([3]; PD patients, listed as vodobatinib): no clinically significant drug-related changes
number of TEAEs, overall ([3]; PD subjects, 14 days): 63
subjects reporting TEAEs, overall ([3]; PD subjects, 14 days): 32
Most common treatment related TEAEs (>1 subject) ([3]; double-blind part): rash, abdominal pain and tremor
number of TEAEs ([3]; double-blind part): 42
subjects reporting TEAEs ([3]; double-blind part): Twenty-three
subjects reporting TEAEs ([3]; double-blind, 6 mg cohort): 3
subjects reporting TEAEs ([3]; double-blind, 12 mg cohort): 3
subjects reporting TEAEs ([3]; double-blind, 18 mg cohort): 2
subjects reporting TEAEs ([3]; double-blind, 24 mg cohort): one
subjects reporting TEAEs ([3]; double-blind, 48 mg cohort): one
subjects reporting TEAEs ([3]; double-blind, 96 mg cohort): 2
subjects reporting TEAEs ([3]; double-blind, 192 mg cohort): 3
subjects reporting TEAEs ([3]; double-blind, 384 mg cohort): 5
most severe TEAE ([3]; one subject, 48 mg group, treatment unrelated, resolved): asthenia of grade 3 severity
number of TEAEs ([3]; open-label part): 21
subjects reporting TEAEs ([3]; open-label part): Nine
number of TEAEs ([3]; open-label, 24 mg cohort (3 subjects)): 10
number of TEAEs ([3]; open-label, 48 mg cohort (3 subjects)): 6
number of TEAEs ([3]; open-label, 96 mg cohort (3 subjects)): 5
number of treatment related TEAEs ([3]; overall): 35
subjects reporting treatment related TEAEs ([3]; overall): Twenty-one
inhibition [4]: potently inhibit
IC50 [5]: 0.8 nM
IC50 [6]: 0.5 nM
inhibition [7]: potently inhibit
IC50 [8]: 1 nM
IC50 [9]: 0.8 nM
inhibition [10]: potently inhibit
